Experiments:
[1] = test system: Mouse experimental autoimmune encephalomyelitis (EAE); experiment: Mouse experimental autoimmune encephalomyelitis (EAE) model for multiple sclerosis; assay type: in vivo, mouse (CSJLF-1); conditions: for Peak Severity: score 0 to 5; for effect on EAE given therapeutically: therapeutic
[2] = test system: Mouse collagen-induced arthritis (CIA); experiment: Mouse collagen-induced arthritis (CIA) model for rheumatoid arthritis; assay type: in vivo, mouse (DBA/1LacJ)
Source text: A model for human rheumatoid arthritis has been developed wherein mice are immunized with bovine type II collagen. Anderson et al., J. Immunol. 1991 147, 1189-1193, citing Trentham et al., J. Exp. Med 1977, 146, 857. Swelling and inflammation of the joints follows in approximately 3 weeks, with joint distortion and ankylosis typical of rheumatoid arthritis. This model has been used to study the effects of the antisense oligonucleotide 17044, targeted to mouse integrin α4, on arthritis in mice.
DBA/1LacJ mice were obtained from Jackson Laboratory, Bar Harbor, Me. Female mice aged 6 to 8 weeks were used and assigned to groups, ten mice per group. On day 0 mice were immunized at the base of the tail with 100 ug of bovine type II collagen which was emulsified in Complete Freund's Adjuvant (CFA). On day 7, a second booster dose of collagen was administered by the same route. On day 14 the mice were injected subcutaneously with 100 ug of lipopolysaccharide (LPS). Weights were recorded weekly. Mice were inspected daily for the onset of CIA, which is characterized by erythema and edema. Upon the onset of the disease, paw widths and rear ankle widths of affected and unaffected joints were measured three times a week using a constant tension caliper. In addition, limbs were clinically evaluated and graded 0-4, where 0=normal; 1=one digit swollen; 2=inflammation present in more than one digit; 3=joint distortion with or without inflammation; and 4=ankylosis, detected by joint manipulation. The progression of all measurements was recorded to day 50. At the end of the observation period for each mouse, all paws were removed and examined histologically.
The oligonucleotide, the positive control drug (cyclophosphamide, 5 mg/kg), and the vehicle were administered daily to each mouse intraperitoneally (IP) starting on day -3 and continuing for the duration of the study. Each animal received 10 mg/kg as a bolus daily dose.
In a preliminary study, a single 10 mg/kg daily dose of […] was administered from the time of disease induction to the conclusion of the study 50 days later. Arthritis incidence was reduced from 70 to 30% in the ISIS 17044-treated group.

[3] = test system: Jurkat T-cell adherence to HUVEC; experiment: Adherence of Jurkat T-cells to HUVEC (flow cytometry); assay type: cell-based, human
Procedure: A similar adherence assay was performed using Jurkat T-cells instead of melanoma cells, again detecting adherence to HUVEC. Because Jurkat cells are smaller and less complex, they can be separated from HUVEC by gating on the basis of differences in forward light scatter and side scatter. For 5000 HUVEC events, adherent Jurkat cells were quantitated. At oligonucleotide concentrations of 1, 3, 10, and 30 μM ISIS 107248, adherence of Jurkat cells to HUVEC was 0, 12%, 32% and 63%, respectively.

[4] = test system: integrin α4; experiment: Inhibition of integrin α4 protein expression in Jurkat T-lymphocyte cells; assay type: cell-based, human
Procedure: ISIS 107248 was tested at doses of 1, 3, 10, 20 and 30 μM for ability to inhibit integrin α4 expression in Jurkat T-lymphocyte cells according to the previous examples. Integrin α4 protein expression was reduced by approximately 65-72% at oligonucleotide doses of 3-30 μM at 24 hours after oligonucleotide treatment. At 48 hours after treatment, integrin α4 protein expression was reduced by 60% at 3 μM and by 90% at 10, 20 and 30 μM oligonucleotide concentration.

[5] = EAE Experiment 1, 1 mg/kg daily SC
[6] = EAE Experiment 1, 5 mg/kg daily SC
[7] = EAE Experiment 1, 10 mg/kg daily SC
[8] = EAE Experiment 1, 20 mg/kg daily SC
[9] = EAE Experiment 3, 1 mg/kg 3× weekly
[10] = EAE Experiment 4, 0.01 mg/kg, prophylactic (P)
[11] = EAE Experiment 4, 0.1 mg/kg SC, prophylactic (P)
[12] = EAE Experiment 4, 1.0 mg/kg SC, prophylactic (P)
[13] = EAE Experiment 4, 1 mg/kg, therapeutic (T), day 18 to 31
[14] = EAE Experiment 4, 2.0 mg/kg SC, prophylactic (P)
[15] = EAE Experiment 5, 0.01 mg/kg, prophylactic (P)
[16] = EAE Experiment 5, 0.1 mg/kg SC, prophylactic (P)
[17] = EAE Experiment 5, 1.0 mg/kg SC, prophylactic (P)
[18] = EAE Experiment 5, 1 mg/kg, therapeutic (T), day 11 to 27
[19] = EAE Experiment 5, 2.0 mg/kg SC, prophylactic (P)
[20] = Table 23, mice with arthritis, 10 mg/kg

## 17044 (CCGCAGCCATGCGCTCTTGG; phosphorothioate, 2'-MOE/deoxy, further chemistry not given here) [compound 17044]
[1]; EAE Experiment 1
  effect on EAE: reduced disease severity or delayed disease onset
[1]; [5]
  Days to Onset: 17.25 days
  Disease Incidence: 4/7
  Peak Severity: 0.29
[1]; [6]
  Days to Onset: 17 days
  Disease Incidence: 6/7
  Peak Severity: 1.86
[1]; [7]
  Days to Onset: 12.75 days
  Disease Incidence: 4/7
  Peak Severity: 2.0
[1]; [8]
  Days to Onset: 15 days
  Disease Incidence: 5/7
  Peak Severity: 1.43
[1]; EAE Experiment 2
  effect on EAE: reduced disease severity and delayed disease onset at all concentrations
[1]; EAE Experiment 2, 0.3 mg/kg SC
  Days to Onset: 16.57 days
  Disease Incidence: 7/7
  Peak Severity: 2.14
[1]; EAE Experiment 2, 1 mg/kg IV
  Days to Onset: 17.2 days
  Disease Incidence: 5/7
  Peak Severity: 1.42
[1]; EAE Experiment 2, 1 mg/kg SC
  Days to Onset: 18.25 days
  Disease Incidence: 4/7
  Peak Severity: 1.0
[1]; EAE Experiment 2, 3 mg/kg SC
  Days to Onset: 16.4 days
  Disease Incidence: 7/7
  Peak Severity: 2.29
[1]; EAE Experiment 3
  effect on EAE: reduced disease severity or delayed disease onset
[1]; EAE Experiment 3, 0.5 mg/kg SC
  Days to Onset: 21.4 days
  Disease Incidence: 5/6
  Peak Severity: 1.5
[1]; [9]
  Days to Onset: 20.3 days
  Disease Incidence: 6/7
  Peak Severity: 1.0
[1]; EAE Experiment 3, 1.0 mg/kg SC
  Days to Onset: 19.25 days
  Disease Incidence: 4/5
  Peak Severity: 1.5
[1]; EAE Experiment 3, 1.5 mg/kg SC
  Days to Onset: 17.5 days
  Disease Incidence: 4/7
  Peak Severity: 1.5
[1]; EAE Experiment 3, 2 mg/kg SC
  Days to Onset: 20 days
  Disease Incidence: 2/6
  Peak Severity: 0.83
[1]; [10]
  Days to Onset: 13.83 days
  Disease Incidence: 6/7
  Peak Severity: 1.86
[1]; [11]
  Days to Onset: 16.29 days
  Disease Incidence: 7/7
  Peak Severity: 1.57
[1]; [12]
  Days to Onset: 15 days
  Disease Incidence: 5/5
  Peak Severity: 2.2
[1]; [13]
  Days to Onset: 13.3 days
  Disease Incidence: 6/6
  Peak Severity: 1.83
[1]; [14]
  Days to Onset: 16.71 days
  Disease Incidence: 7/7
  Peak Severity: 2.29
[1]; EAE Experiment 4
  effect on EAE given therapeutically: reduced disease severity when given therapeutically
[1]; [15]
  Days to Onset: 11.57 days
  Disease Incidence: 7/7
  Peak Severity: 1.57
[1]; [16]
  Days to Onset: 12.67 days
  Disease Incidence: 6/7
  Peak Severity: 1.14
[1]; [17]
  Days to Onset: 11.33 days
  Disease Incidence: 6/7
  Peak Severity: 1.86
[1]; [18]
  Days to Onset: 12.71 days
  Disease Incidence: 7/7
  Peak Severity: 1.42
[1]; [19]
  Days to Onset: 12 days
  Disease Incidence: 7/7
  Peak Severity: 1.86
[1]; EAE Experiment 5
  effect on EAE given therapeutically: reduced disease severity when given therapeutically
[2]; Table 22, 10 mg/kg daily IP
  # Paws/Mouse (mean number of affected paws at termination): 0.7 ± 0.4
  Mean Day of Onset: 20.3 ± 1.9 days
  Peak Day of Inflamm. (day from onset to time of maximum swelling): 1.6 ± 0.8 days
  Severity (total clinical score/total number of mice in group): 2.1 ± 1.1
[2]; [20]
  Mean # of Paws Involved: 2.3 ± 0.3
  Mean Clinical Score: 7.0 ± 1.0
[2]; preliminary study, single 10 mg/kg daily dose, reduced from 70
  Arthritis incidence: 30%

## 107248 (antisense CTGAGTCTGTTTTCCATTCT; chemistry not given here) [compound 107248]
[3]; 1 μM
  adherence of Jurkat cells to HUVEC: 0%
[3]; 3 μM
  adherence of Jurkat cells to HUVEC: 12%
[3]; 10 μM
  adherence of Jurkat cells to HUVEC: 32%
[3]; 30 μM
  adherence of Jurkat cells to HUVEC: 63%
[4]; 3 μM, 48 hours
  reduction of integrin α4 protein expression: 60%
[4]; 10 μM, 48 hours
  reduction of integrin α4 protein expression: 90%
[4]; 20 μM, 48 hours
  reduction of integrin α4 protein expression: 90%
[4]; 30 μM, 48 hours
  reduction of integrin α4 protein expression: 90%
[4]; 3-30 μM, 24 hours
  reduction of integrin α4 protein expression: 65-72%

Reference: patent publication US6258790A, “Antisense modulation of integrin α4 expression” (Isis Pharmaceuticals, Inc., priority 1999, dated 2001)
